For data set [1] the following is noted: 293.15 K; 101.33 kPa; Liquid; Pycnometric method.
Data set [2] can be described thus: Boiling temperature at pressure P. Particulars: Liquid, Ebulliometric method (Recirculating still).
The nature of data set [3]: refractive index (Na D-line) (dimensionless). The following applies: 298.15 K; 101.33 kPa; Liquid; Standard Abbe refractometry.

Here are results for 3 molecules from the NIST ThermoML archive (doi:10.1016/j.fluid.2015.07.017).

SMILES strings stand for the structures. Numbers after ± are expanded uncertainties.

As for `CO` [methanol], the mass density in data set [1] turned out to be 791.1 ± 0.7 kg/m3. Further, the “Boiling temperature at pressure P” value in data set [2] (101.33 kPa) worked out at 64.71 ± 0.1 °C. Besides, in data set [3], the refractive index is on record as 1.3269 ± 0.0007.
`CCCOCOC` [1-(methoxymethoxy)propane]: in data set [1], the mass density was found to be 841.4 ± 0.8 kg/m3. In addition, the “Boiling temperature at pressure P” value was 29.97 ± 0.11 °C in data set [2] (8.17 kPa); 38.00 ± 0.11 °C in data set [2] (12.41 kPa); 46.03 ± 0.1 °C in data set [2] (18.11 kPa); 54.81 ± 0.1 °C in data set [2] (26.67 kPa); 62.67 ± 0.1 °C in data set [2] (36.4 kPa); 68.11 ± 0.1 °C in data set [2] (44.6 kPa). The “Boiling temperature at pressure P” value worked out at 73.17 ± 0.1 °C in data set [2] (53.33 kPa); 76.2 ± 0.1 °C in data set [2] (59.35 kPa); 81.07 ± 0.1 °C in data set [2] (69.65 kPa); 85.2 ± 0.1 °C in data set [2] (79.9 kPa); 88.33 ± 0.1 °C in data set [2] (87.9 kPa); 90.82 ± 0.1 °C in data set [2] (94.9 kPa). In addition, the “Boiling temperature at pressure P” value in data set [2] (101.33 kPa) turned out to be 92.97 ± 0.1 °C; in data set [2] (112 kPa), 96.14 ± 0.1 °C. In addition, the refractive index in data set [3] was found to be 1.3757 ± 0.0007.
Take `CCCO` [propan-1-ol]: the mass density in data set [1] is recorded as 803.7 ± 0.7 kg/m3. In addition, in data set [2] (101.33 kPa), the “Boiling temperature at pressure P” value is 97.20 ± 0.1 °C. Moreover, the refractive index in data set [3] is recorded as 1.3836 ± 0.0007.
